The data set is described as follows: physchem. To be noted: thermodynamic from solid.

≈ marks a conversion by molar mass, not a printed value. Where only a bound is given, the exact number is not on record here.

Method: Assay 6: Solubility Assay in Organic Excipients
The purpose of this assay was to quantify the solubility of test compounds in different organic excipients such as diisopropyl adipate, medium chain triglycerides (MCT), propylene glycol, and polyethylene glycol. The assay required 80 μL of 100 mM DMSO test compound solution per desired excipient in addition to 40 μL required to make a test standard.
The standard was created by diluting 40 μL of 100 mM DMSO compound stock solution into 160 μL of methanol and was shaken for five minutes to ensure solution uniformity. […] This 20,000 μM solution was run on an Agilent 1260 LC-MS system by injecting 0.2 μL in order to obtain the peak area. For the test solutions, 80 μL of 100 mM DMSO compound stock solution, per excipient, were dried down into a powder overnight. Once in powder form, 400 μL of the desired excipient was added to the powder and allowed to shake vigorously for four hours. The maximum theoretical concentration for this sample solution was 20,000 μM. After four hours of shaking, the samples were centrifuged for 10 minutes at 3,000 RPM before injecting 0.2 μL on the same Agilent 1260 LC-MS system to obtain the peak area.

For the compound `COC(=O)N1[C@@H]2CCC[C@H]1C[C@H](N(C)c1nc(Nc3cc(C)[nH]n3)cc(O[C@@H]3CCOC3)n1)C2` [Compound 23], the solubility at 4 h was 5000 to 10000 µg/mL (≈ 10.6 to 21.2 mM) (oil or lipid, Solubility in MCT (mg/mL)); over 10000 µg/mL (organic solvent or mixture, Solubility in Diisopropyl adipate (mg/mL)); 5000 to 10000 µg/mL (≈ 10.6 to 21.2 mM) (organic solvent or mixture, Solubility in PEG400 (mg/mL)); over 10000 µg/mL (organic solvent or mixture, Solubility in Propylene glycol (mg/mL)).

The term solubility denotes how much of the substance goes into solution per volume.

The record behind these values is patent publication US11439641B2, “Pyrimidine JAK inhibitors for the treatment of skin diseases” (THERAVANCE BIOPHARMA R&D IP, LLC, priority 2019, dated 2022).
